One assay has as its target T1, B1R of rats (Rattus norvegicus, UniProt P97583).
T1 construct: expressed in transfected cells; host or cells: CHO K1 cells
T1 sequence (P97583 1-337): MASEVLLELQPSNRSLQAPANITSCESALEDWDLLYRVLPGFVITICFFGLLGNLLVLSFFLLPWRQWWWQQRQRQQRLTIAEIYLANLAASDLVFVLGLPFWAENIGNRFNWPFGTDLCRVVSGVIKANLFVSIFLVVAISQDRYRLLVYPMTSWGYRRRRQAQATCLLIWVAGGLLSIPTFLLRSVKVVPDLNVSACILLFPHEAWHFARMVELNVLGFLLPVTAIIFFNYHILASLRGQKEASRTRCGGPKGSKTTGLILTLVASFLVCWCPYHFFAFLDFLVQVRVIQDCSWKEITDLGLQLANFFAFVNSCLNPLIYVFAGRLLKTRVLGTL
Put plainly: Functional investigation on the bradykinin 1 receptor (B1R), cell-based fluorescent calcium-mobilization assay (FLIPR/Novostar), rat. Conditions: 10 μM test substance, CHO K1 cells stably transfected with rat B1R gene, agonist Des-Arg9-bradykinin at EC80, % inhibition compared with maximum achievable inhibition; for inhibition at 10 µM: read-out: B1R antagonism, rat [10 μM] % inhibition. The procedure:
(§1) The agonistic or antagonistic action of substances can be quantified on the bradykinin 1 receptor (B1R) of the human and rat species with ectopically expressing cell lines (CHO K1 cells) and with the aid of a Ca^2+-sensitive dyestuff (Fluo-4) in a fluorescent imaging plate reader (FLIPR). The figure in % activation is based on the Ca^2+ signal after addition of Lys-Des-Arg^9-bradykinin (0.5 nM) or Des-Arg^9-bradykinin (100 nM). Antagonists lead to a suppression of the Ca^2+ inflow after addition of the agonist. % inhibition compared with the maximum achievable inhibition is stated.
(§2) The agonistic or antagonistic action of substances can be determined on the bradykinin 1 receptor (B1R) of humans and rats by means of a cell-based flourescent calcium-mobilization assay. According to this assay agonist-induced increase of intracellular free Ca^2+ is quantified by means of a Ca^2+-sensitive dye (Fluo-4 type, Molecular Probes Europe BV, Leiden, Netherlands), in a Fluorescent Imaging Plate Reader (FLIPR, Molecular Devices, Sunnyvale, USA) and/or the Novostar (BMG Labtech GmbH, Offenburg, Germany).
(§3) Chinese hamster ovary cells (CHO K1 cells), which are stably transfected with the human B1R gene (hB1R cells) or with the B1R gene of rats (rB1R cells), are used. For functional investigations these cells are seeded into black 96-well plates with a clear bottom (BD Biosciences, Heidelberg, Germany or Greiner, Frickenhausen, Germany) in a density of 20,000-35,000 cells/well. The cells are incubated overnight in a humidified atmosphere at 37° C. and 5% CO2 in culture medium (hB1R cells: Nutrient Mixture Ham's F12, Gibco Invitrogen GmbH, Karlsruhe, Germany or DMEM, Sigma-Aldrich, Taufkirchen, Germany; rB1R cells: D-MEM/F12, Gibco Invitrogen GmbH, Karlsruhe, Germany) with 10 vol. % FBS (foetal bovine serum, Gibco Invitrogen GmbH, Karlsruhe, Germany).
(§4) On the following day the cells are loaded with the Ca^2+-sensitive dye Fluo-4-AM (Molecular Probes Europe BV, Leiden, Netherlands):
(§5) Method A: The medium of the cells is removed and cell plates are incubated with loading solution, which contains 2.13 μM Fluo-4-AM, 2.5 mM probenecid (Sigma-Aldrich, Taufkirchen, Germany), and 10 mM HEPES (Sigma-Aldrich, Taufkirchen, Germany) in HBSS buffer (Hank's buffered saline solution, Gibco Invitrogen GmbH, Karlsruhe, Germany) for 60 minutes at 37° C. After the plates are washed twice with HBSS buffer, HBSS buffer supplemented 0.1% BSA (bovine serum albumin; Sigma-Aldrich, Taufkirchen, Germany), 5.6 mM glucose and 0.05% gelatine (Merck KGaA, Darmstadt, Germany) is added. Cell plates are incubated for at least 20 minutes in the dark at room temperature before they are used for the Ca^2+ measurement in the FLIPR or Novostar.
(§6) Method B: The plates are washed with buffer A (15 mM HEPES, 80 mM NaCl, 5 mM KCl, 1.2 mM CaCl2, 0.7 mM MgSO4, 2 mg/ml glucose, 2.5 mM probenecid) and subsequently loaded with buffer A containing 2.4 μM Fluo-4-AM and 0.025% pluronic F127 (Sigma-Aldrich, Taufkirchen, Germany) for 60 minutes at 37° C. Cell plates are washed twice with buffer A. Then, buffer A supplemented with 0.05% BSA and 0.05% gelatine is added and cell plates are incubated in the dark at room temperature for at least 20 minutes before measurement in the FLIPR or Novostar is started.
(§7) The Ca^2+-dependent fluorescence is measured both before and after the addition of substances (λex=488 nm, λem=540 nm). For quantification of the effect the highest fluorescence intensity (FC, fluorescence counts) over time is given. The FLIPR protocol consists of two substance additions, done within the instrument while continuously monitoring the Ca^2+-dependent fluorescence at 540 nm. When the Novostar was used, one addition had to be done outside the instrument. Test substances (10 μM) are initially pipetted onto the cells and the intracellular Ca^2+ rise is compared with the control (hB1R: Lys-Des-Arg9-bradykinin>=50 nM; rB1R: Des-Arg9-bradykinin>=1 μM). […]

In a further assay the target is T2, human B1R (Homo sapiens, UniProt P46663).
T2 construct: expressed in transfected cells; host or cells: CHO K1 cells
T2 sequence (P46663 1-353): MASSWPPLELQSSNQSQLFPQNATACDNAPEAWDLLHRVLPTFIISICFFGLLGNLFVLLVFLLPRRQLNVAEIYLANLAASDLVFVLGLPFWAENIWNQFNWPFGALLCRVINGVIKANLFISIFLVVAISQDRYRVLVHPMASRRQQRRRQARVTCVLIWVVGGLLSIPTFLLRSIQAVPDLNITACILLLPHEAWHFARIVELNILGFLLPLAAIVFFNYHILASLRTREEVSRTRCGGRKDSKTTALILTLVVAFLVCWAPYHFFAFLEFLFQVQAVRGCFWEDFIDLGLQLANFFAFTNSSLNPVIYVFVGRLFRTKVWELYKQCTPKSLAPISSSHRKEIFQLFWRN
Kind of assay: Functional investigation on the bradykinin 1 receptor (B1R), cell-based fluorescent calcium-mobilization assay (FLIPR/Novostar), human. Conditions: 10 μM test substance, CHO K1 cells stably transfected with human B1R gene, agonist Lys-Des-Arg9-bradykinin at EC80, % inhibition compared with maximum achievable inhibition; for inhibition at 10 µM: read-out: B1R antagonism, human [10 μM] % inhibition. The procedure: as §1, §2, §3, §4, §5, §6, §7

Counter-ions that a name gives are not always drawn.

As for `CN1CCN(C2(CNC(=O)c3cccnc3)CCN(C(=O)CC3CCCCN3S(=O)(=O)c3cccc(C(F)(F)F)c3)CC2)CC1` (centres unmarked) [Example 39, N-((4-(4-methylpiperazin-1-yl)-1-(2-(1-(3-(trifluoromethyl)phenylsulfonyl)-piperidin-2-yl)acetyl)piperidin-4-yl)methyl)nicotinamide], the inhibition at 10 µM came out at 94% on B1R of rats and 11% on human B1R.
On the same counts, the results for `COc1cc(C)c(S(=O)(=O)N2CCCCC2COCC(=O)N2CCC(CNC(=O)c3ccccc3)(N3CCN(C)CC3)CC2)c(C)c1` (centres unmarked) [Example 5, N-((1-(2-((1-(4-methoxy-2,6-dimethylphenylsulfonyl)piperidin-2-yl)methoxy)acetyl)-4-(4-methylpiperazin-1-yl)piperidin-4-yl)methyl)benzamide] are 104% and 102%.
On the same counts, the results for `COc1cc(C)c(S(=O)(=O)N2CCCCC2COCCC(=O)N2CCC(CNC(=O)c3ccncc3)(N3CCN(C)CC3)CC2)c(C)c1` (centres unmarked) [Example 52, N-((1-(3-((1-(4-Methoxy-2,6-dimethylphenylsulfonyl)piperidin-2-yl)methoxy)propanoyl)-4-(4-methylpiperazin-1-yl)piperidin-4-yl)methyl)isonicotinamide] are 102% and 100%.
On the same counts, the results for `CN1CCN(C2(CNC(=O)Cc3ccccc3)CCN(C(=O)COCC3CCc4ccccc4N3S(=O)(=O)c3ccc(Cl)c(Cl)c3)CC2)CC1` (centres unmarked) [Example 13, N-((1-(2-((1-(3,4-dichlorophenylsulfonyl)-1,2,3,4-tetrahydroquinolin-2-yl)methoxy)acetyl)-4-(4-methylpiperazin-1-yl)piperidin-4-yl)methyl)-2-phenylacetamide] are 52% and 104%.
For `CN1CCN(C2(CNC(=O)c3cccnc3)CCN(C(=O)CC(NS(=O)(=O)c3ccc4ccccc4c3)c3ccccc3)CC2)CC1` (centres unmarked) [Example 38, N-((4-(4-methylpiperazin-1-yl)-1-(3-(naphthalene-2-sulfonamido)-3-phenylpropanoyl)piperidin-4-yl)methyl)nicotinamide], the figures for the inhibition at 10 µM on B1R of rats and at human B1R were 73% and 50%, respectively.
Regarding `COc1cc(C)c(S(=O)(=O)N(C)CCOCC(=O)N2CCC(CNC(=O)c3ccncc3)(N3CCN(C)CC3)CC2)c(C)c1` [Example 48, N-((1-(2-(2-(4-Methoxy-N,2,6-trimethylphenylsulfonamido)ethoxy)acetyl)-4-(4-methylpiperazin-1-yl)piperidin-4-yl)methyl)isonicotinamide hydrochloride], at B1R of rats (hydrochloride, 10 µM), the “B1R antagonism, rat [10 μM] % inhibition” value was 97%. Besides, the “B1R antagonism, human [10 μM] % inhibition” value on human B1R (hydrochloride, 10 µM) was 100%.
For the molecule `COc1cc(C)c(S(=O)(=O)N2c3ccccc3C[C@H]2COCC(=O)N2CCC(CNC(=O)c3ccncc3)(N3CCN(C4CC4)CC3)CC2)c(C)c1` [Example 45, (S)—N-((4-(4-Cyclopropylpiperazin-1-yl)-1-(2-((1-(4-methoxy-2,6-dimethylphenylsulfonyl)indolin-2-yl)methoxy)acetyl)piperidin-4-yl)methyl)isonicotinamide], the results for the inhibition at 10 µM at B1R of rats and on human B1R were 102% and 100%, respectively.
Turning to `COc1cc(C)c(S(=O)(=O)N(C)CCOCC(=O)N2CCC(CNC(C)=O)(N3CCN(C)CC3)CC2)c(C)c1` [Example 31, N-((1-(2-(2-(4-methoxy-N,2,6-trimethylphenylsulfonamido)ethoxy)acetyl)-4-(4-methylpiperazin-1-yl)piperidin-4-yl)methyl)acetamide], the inhibition at 10 µM on B1R of rats was determined as 101%; on human B1R it was 103%.
In the same order, the values of `COc1cc(C)c(S(=O)(=O)N(C)CCOCC(=O)N2CCC(CNC(=O)c3cccnc3)(N3CCN(C)CC3)CC2)c(C)c1` [Example 32, N-((1-(2-(2-(4-methoxy-N,2,6-trimethylphenylsulfonamido)ethoxy)acetyl)-4-(4-methylpiperazin-1-yl)piperidin-4-yl)methyl)nicotinamide] are 101% and 104%.
As to `COc1cc(C)c(S(=O)(=O)N(C)CCOCC(=O)N2CCC(CNC(=O)c3ccncc3)(N3CCN(C)CC3)CC2)c(C)c1` [Example 1, N-((1-(2-(2-(4-methoxy-N,2,6-trimethylphenylsulfonamido)ethoxy)acetyl)-4-(4-methylpiperazin-1-yl)piperidin-4-yl)methyl)isonicotinamide], the inhibition at 10 µM on B1R of rats came to 101%; at human B1R, 107%.
For `CC(=O)NCC1(N2CCN(C)CC2)CCN(C(=O)COCC2CCc3ccccc3N2S(=O)(=O)c2ccc(Cl)c(Cl)c2)CC1` (centres unmarked) [Example 7, N-((1-(2-((1-(3,4-dichlorophenylsulfonyl)-1,2,3,4-tetrahydroquinolin-2-yl)methoxy)acetyl)-4-(4-methylpiperazin-1-yl)piperidin-4-yl)methyl)acetamide], the inhibition at 10 µM at B1R of rats was 105%; at human B1R, 102%.
In the same order, the values of `CN1CCN(C2(CNC(=O)c3ccncc3)CCN(C(=O)CC3CCCCN3S(=O)(=O)c3cccc(C(F)(F)F)c3)CC2)CC1` (centres unmarked) [Example 29, N-((4-(4-methylpiperazin-1-yl)-1-(2-(1-(3-(trifluoromethyl)phenylsulfonyl)-piperidin-2-yl)acetyl)piperidin-4-yl)methyl)isonicotinamide] are 33% and 67%.
On the same counts, the results for `Cc1cc(S(=O)(=O)N2CCCCC2CCC(=O)N2CCC(CNC(=O)c3ccncc3)(N3CCN(C)CC3)CC2)c(C)cc1Cl` (centres unmarked) [Example 26, N-((1-(3-(1-(4-chloro-2,5-dimethylphenylsulfonyl)piperidin-2-yl)propanoyl)-4-(4-methylpiperazin-1-yl)piperidin-4-yl)methyl)isonicotinamide] are 45% and 103%.

What is called inhibition is the relative decrease from the control value, in per cent.

The record behind these values is patent US8541573B2, “Substituted sulfonamide compounds” (Gruenenthal GmbH, priority 2008, dated 2013).
